Among the test systems are MDA-MB-435; KM12 colon; SNB-75 CNS; NCI-H522 lung; HT29 colon; M14 melanoma; OVCAR-4 ovarian; EKVX NSCLC; COLO 205 colon; SK-MEL-5 melanoma; HCT-15 colon; RXF 393 renal; MCF7 breast; ACHN renal; SR leukemia; SF-268 CNS; DU-145 prostate; SW-620 colon; RPMI-8226 leukemia; A498 renal.
Holding throughout (assay): growth of human tumour cells (NCI), 48 h

For 15 compounds, TGI results are on record in PubChem BioAssay (NCI).

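Cultured in 96-well plates, cells were exposed to test compound for 48 hours across five concentrations. At the TGI there is no net growth.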 Bounds are passed on as bounds.

For `O=c1[nH]c(=O)n(C2CC(O)C(CO)O2)cc1OCC1CCCCC1` (centres undefined), the TGI in the assay with MDA-MB-435, in the assay with KM12 colon, in the assay on SNB-75 CNS, in the assay with NCI-H522 lung, with HT29 colon and with M14 melanoma was greater than 100 µM each time. The TGI in the assay on OVCAR-4 ovarian, in the assay on EKVX NSCLC, in the assay with COLO 205 colon, in the assay with SK-MEL-5 melanoma, in the assay on HCT-15 colon and in the assay with RXF 393 renal was greater than 100 µM in each case. Further, the TGI with MCF7 breast, in the assay on ACHN renal, with SR leukemia, in the assay with SF-268 CNS and with DU-145 prostate was greater than 100 µM in each case.

Consider `CSc1nc(SC)c2ncn(C3CC(Oc4ccc(C)cc4)C(COc4ccc(C)cc4)O3)c2n1` (centres undefined), for which the TGI in the assay on MDA-MB-435, in the assay on KM12 colon, in the assay on SNB-75 CNS, with NCI-H522 lung, in the assay on SW-620 colon and with HT29 colon was greater than 100 µM throughout. The TGI in the assay on M14 melanoma, with OVCAR-4 ovarian, with EKVX NSCLC, in the assay with COLO 205 colon, in the assay with SK-MEL-5 melanoma and in the assay on HCT-15 colon was greater than 100 µM each time. In addition, the TGI in the assay with RPMI-8226 leukemia, in the assay with A498 renal, in the assay with MCF7 breast, in the assay with ACHN renal, with SF-268 CNS and in the assay on DU-145 prostate was greater than 100 µM throughout.

For the compound `O[C@@H]1C[C@H]2N3CC[C@@]2(c2cc4c(cc2C3)OCO4)[C@H]2O[C@@H]12`, the TGI with MDA-MB-435, in the assay on KM12 colon, in the assay on SNB-75 CNS, in the assay on NCI-H522 lung, in the assay with SW-620 colon and in the assay on HT29 colon was greater than 100 µM in each case. The TGI was greater than 100 µM in the assay with M14 melanoma; greater than 100 µM in the assay on OVCAR-4 ovarian; greater than 100 µM with EKVX NSCLC; 0.0204 µM in the assay on COLO 205 colon; greater than 100 µM with HCT-15 colon; greater than 100 µM in the assay on RPMI-8226 leukemia. Besides, the TGI in the assay on RXF 393 renal, with A498 renal, with MCF7 breast, in the assay on ACHN renal, in the assay on SF-268 CNS and with DU-145 prostate was greater than 100 µM throughout.

Take `CCOC(=O)c1ccc(Nc2nc3ccccc3nc2C(=O)OCC)cc1`: the TGI in the assay with MDA-MB-435, with KM12 colon, with SNB-75 CNS, in the assay on NCI-H522 lung, with HT29 colon and in the assay on M14 melanoma was greater than 100 µM throughout. In addition, the TGI in the assay with OVCAR-4 ovarian, in the assay on EKVX NSCLC, in the assay on COLO 205 colon, in the assay on SK-MEL-5 melanoma, in the assay on HCT-15 colon and with RPMI-8226 leukemia was greater than 100 µM each time. Moreover, the TGI in the assay on MCF7 breast, in the assay on ACHN renal, in the assay on SR leukemia, in the assay on SF-268 CNS and in the assay on DU-145 prostate was greater than 100 µM each time.

Consider `CC(=O)N1CC(=O)N2C(=O)/C(=C/c3ccc(Cl)cc3)N=C12`, for which the TGI with MDA-MB-435, in the assay with KM12 colon, with SNB-75 CNS, with SW-620 colon, with HT29 colon and with M14 melanoma was greater than 100 µM throughout. Moreover, the TGI in the assay with OVCAR-4 ovarian, in the assay with EKVX NSCLC, with COLO 205 colon, in the assay with SK-MEL-5 melanoma, with HCT-15 colon and in the assay on RPMI-8226 leukemia was greater than 100 µM throughout. Further, the TGI with RXF 393 renal, with A498 renal, in the assay with MCF7 breast, in the assay on ACHN renal, with SF-268 CNS and with DU-145 prostate was greater than 100 µM in each case.

As to `Cc1ccc(C)c2c1CC(Cc1ccccc1C(=O)O)C2=O` (centres undefined), the TGI in the assay on MDA-MB-435, in the assay with KM12 colon, with SNB-75 CNS, in the assay on NCI-H522 lung, with SW-620 colon and with HT29 colon was greater than 100 µM each time. The TGI with M14 melanoma, in the assay on OVCAR-4 ovarian, in the assay with EKVX NSCLC, in the assay with COLO 205 colon, with SK-MEL-5 melanoma and in the assay on HCT-15 colon was greater than 100 µM in each case. In addition, the TGI in the assay with RXF 393 renal, with MCF7 breast, in the assay on ACHN renal, in the assay with SF-268 CNS and in the assay on DU-145 prostate was greater than 100 µM throughout.

As for `CCOP(=O)(OCC)[C@H]1OC(C)(C)O[C@@H]1CO`, the TGI in the assay with MDA-MB-435, in the assay with KM12 colon, in the assay with NCI-H522 lung, with SW-620 colon, in the assay on HT29 colon and in the assay with M14 melanoma was greater than 100 µM in each case. Further, the TGI with OVCAR-4 ovarian, in the assay on EKVX NSCLC, in the assay on COLO 205 colon, in the assay on SK-MEL-5 melanoma, in the assay on HCT-15 colon and in the assay on RPMI-8226 leukemia was greater than 100 µM each time. Also, the TGI in the assay on A498 renal, in the assay on MCF7 breast, with ACHN renal, with SF-268 CNS and in the assay with DU-145 prostate was greater than 100 µM in each case.

As for `COC(=O)c1c2c(cc3c1CC1(Cc4cc5c(cc4C1=O)CCC5)C3)CCC2` (centres undefined), the TGI in the assay with MDA-MB-435, with KM12 colon, in the assay with SNB-75 CNS, with NCI-H522 lung, in the assay on SW-620 colon and in the assay with HT29 colon was greater than 100 µM each time. The TGI is greater than 100 µM in the assay on M14 melanoma; greater than 100 µM in the assay on OVCAR-4 ovarian; greater than 100 µM in the assay with EKVX NSCLC; greater than 100 µM with COLO 205 colon; 54.4 µM with SK-MEL-5 melanoma; greater than 100 µM with HCT-15 colon. Also, the TGI is 57.7 µM in the assay on RPMI-8226 leukemia; greater than 100 µM with A498 renal; greater than 100 µM with MCF7 breast; greater than 100 µM in the assay on ACHN renal; greater than 100 µM with SF-268 CNS; greater than 100 µM in the assay with DU-145 prostate.

For the compound `NCCC(=O)N[C@@H](Cc1cc(O)c(O)c(SCC(NC(=O)CC[C@H](N)C(=O)O)C(=O)NCC(=O)O)c1)C(=O)O` (some centres undefined), the TGI with MDA-MB-435, in the assay with KM12 colon, in the assay with SNB-75 CNS, with NCI-H522 lung, in the assay with SW-620 colon and in the assay on HT29 colon was greater than 50 µM each time. In addition, the TGI with M14 melanoma, in the assay on OVCAR-4 ovarian, in the assay on EKVX NSCLC, in the assay with COLO 205 colon, in the assay with HCT-15 colon and with RPMI-8226 leukemia was greater than 50 µM in each case. Besides, the TGI in the assay with RXF 393 renal, in the assay with A498 renal, in the assay on MCF7 breast, in the assay on ACHN renal, in the assay on SF-268 CNS and in the assay on DU-145 prostate was greater than 50 µM throughout.

As for `Cn1/c(=N\N=C(\CNCCO)[C@@H](O)[C@@H]2OC(c3ccccc3)OC[C@H]2O)sc2ccccc21` (some centres undefined), the TGI with MDA-MB-435 is 35 µM; with KM12 colon, 33.5 µM; with SNB-75 CNS, 32.3 µM; with NCI-H522 lung, 32.7 µM; with SW-620 colon, 37.5 µM; in the assay on HT29 colon it was 38.6 µM. Besides, the TGI in the assay on M14 melanoma was determined as 26.5 µM; in the assay with OVCAR-4 ovarian, 52.8 µM; in the assay with EKVX NSCLC, 33.2 µM; in the assay with COLO 205 colon, 30.9 µM; in the assay on SK-MEL-5 melanoma, 28.5 µM; in the assay with HCT-15 colon, 54.6 µM. For the same compound, the TGI in the assay with RXF 393 renal came out at 30.9 µM; in the assay on MCF7 breast, 34.2 µM; in the assay with ACHN renal, 44 µM; in the assay on SR leukemia, 41 µM; with SF-268 CNS, 30.5 µM; with DU-145 prostate, 35.1 µM.

For the compound `Cc1ccc(-c2nc(-c3cnccn3)n(C3OC(CO)C(O)C(O)C3O)n2)cc1` (centres undefined), the TGI with MDA-MB-435, in the assay on KM12 colon, with SNB-75 CNS, in the assay on NCI-H522 lung, in the assay on SW-620 colon and with HT29 colon was greater than 100 µM each time. In addition, the TGI in the assay with M14 melanoma, in the assay on OVCAR-4 ovarian, in the assay with EKVX NSCLC, with COLO 205 colon, in the assay on SK-MEL-5 melanoma and in the assay with HCT-15 colon was greater than 100 µM throughout. Moreover, the TGI with RPMI-8226 leukemia, in the assay with RXF 393 renal, with MCF7 breast, in the assay with SR leukemia, in the assay with SF-268 CNS and in the assay on DU-145 prostate was greater than 100 µM each time.

For the compound `CC(=O)O[C@H]1CCC2[C@@H]3CCC4Cc5nc6c(nc5C[C@]4(C)C3CC[C@@]21C)CC1CC[C@@H]2C(CC[C@@]3(C)C2CC[C@@H]3C(C)CCCC(C)C)[C@@]1(C)C6` (some centres undefined), the TGI with MDA-MB-435, in the assay with KM12 colon, in the assay on SNB-75 CNS, in the assay on SW-620 colon, with HT29 colon and in the assay on M14 melanoma was greater than 100 µM throughout. The TGI with OVCAR-4 ovarian, with EKVX NSCLC, with COLO 205 colon, in the assay with SK-MEL-5 melanoma, with HCT-15 colon and in the assay with RPMI-8226 leukemia was greater than 100 µM in each case. In addition, the TGI in the assay on RXF 393 renal, in the assay with MCF7 breast, in the assay with ACHN renal, in the assay on SF-268 CNS and in the assay on DU-145 prostate was greater than 100 µM in each case.

On to `Cc1ccc(C(=O)OCC(C)C)cc1N=NN(C)C`, for which the TGI in the assay with MDA-MB-435, in the assay on KM12 colon, with NCI-H522 lung, in the assay on SW-620 colon, in the assay on HT29 colon and in the assay on M14 melanoma was greater than 100 µM in each case. Besides, the TGI in the assay on OVCAR-4 ovarian, with EKVX NSCLC, in the assay on COLO 205 colon, in the assay on SK-MEL-5 melanoma, with HCT-15 colon and with RPMI-8226 leukemia was greater than 100 µM each time. Further, the TGI with MCF7 breast, with ACHN renal, in the assay with SR leukemia, in the assay with SF-268 CNS and in the assay with DU-145 prostate was greater than 100 µM in each case.

As to `CNc1nnc(CNc2ccc(-c3nnc(NC)n3N)cc2)n1N`, the TGI in the assay on MDA-MB-435, in the assay with KM12 colon, with SNB-75 CNS, with SW-620 colon, in the assay with HT29 colon and with M14 melanoma was greater than 100 µM in each case. The TGI in the assay on OVCAR-4 ovarian, in the assay with EKVX NSCLC, in the assay with COLO 205 colon, in the assay with SK-MEL-5 melanoma, in the assay on HCT-15 colon and in the assay with RXF 393 renal was greater than 100 µM throughout. Also, the TGI with A498 renal, in the assay with MCF7 breast, in the assay with ACHN renal, in the assay on SF-268 CNS and in the assay with DU-145 prostate was greater than 100 µM in each case.

With `CC(C)SC(NC(=O)C1C(C)(C)CCC1(C)C)C(=O)O` (centres undefined), the TGI in the assay on MDA-MB-435, in the assay on SNB-75 CNS, with SW-620 colon, in the assay on M14 melanoma, in the assay on EKVX NSCLC and in the assay on COLO 205 colon was greater than 100 µM in each case. The TGI with SK-MEL-5 melanoma, in the assay with HCT-15 colon, in the assay with RPMI-8226 leukemia, with A498 renal, in the assay with MCF7 breast and in the assay with ACHN renal was greater than 100 µM each time. The TGI with SF-268 CNS and in the assay with DU-145 prostate was greater than 100 µM in each case.
